From US10294236B2, “Compounds as rearranged during transfection (RET) inhibitors” (GLAXOSMITHKLINE INTELLECTUAL PROPERTY DEVELOPMENT LIMITED, priority 2014, dated 2019)

Molecular target: T1, Human RET kinase cytoplasmic domain (Homo sapiens, UniProt P07949)
T1 construct: made in house
T1 sequence (P07949 658-1114): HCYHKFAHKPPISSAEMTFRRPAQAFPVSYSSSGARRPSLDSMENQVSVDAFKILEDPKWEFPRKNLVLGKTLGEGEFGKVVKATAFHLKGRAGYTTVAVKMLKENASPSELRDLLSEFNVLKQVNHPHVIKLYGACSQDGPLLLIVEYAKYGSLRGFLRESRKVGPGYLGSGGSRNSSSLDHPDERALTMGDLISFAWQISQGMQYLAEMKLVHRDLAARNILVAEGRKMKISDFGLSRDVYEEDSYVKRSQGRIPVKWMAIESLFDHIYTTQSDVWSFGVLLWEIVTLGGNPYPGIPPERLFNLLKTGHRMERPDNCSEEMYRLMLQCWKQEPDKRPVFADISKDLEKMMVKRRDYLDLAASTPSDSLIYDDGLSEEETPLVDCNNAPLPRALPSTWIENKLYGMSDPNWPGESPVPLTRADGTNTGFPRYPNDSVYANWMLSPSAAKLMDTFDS
Assay: RET kinase enzymatic assay
Format: biochemical
How it was run: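 GST-RET, 0.2 nM in 2× enzyme mix (HEPES, CHAPS, BSA, DTT), preincubated with inhibitor 30 min at 23 °C. Reaction for 1 h at 23 °C after adding 2× substrate mix: 20 μM ATP, 20 mM MgCl2, 1 μM biotinylated peptide. Single wells per concentration; IC50 from sigmoidal dose-response fit.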

Compound | IC50 [nM]
CCOc1cc(-c2ccc(NC(=O)Nc3ccc(OC(C)(C)C)c(C(F)(F)F)c3)cc2)c[nH]c1=O [Example 79] | < 100
CCOc1ccc(NC(=O)Nc2ccc(-c3c[nH]c(=O)c(OCC)c3)cc2F)cc1C(F)(F)F [Example 80] | < 100
CCOc1cc(-c2ccc(NC(=O)Nc3ccc(CC(C)(C)C#N)c(C(F)(F)F)c3)c(F)c2)c[nH]c1=O [Example 81] | < 100
CCOc1cc(-c2ccc(NC(=O)Nc3ccc(OC(C)C)c(C(F)(F)F)c3)c(F)c2)c[nH]c1=O [Example 82] | < 100
CCOc1cc(-c2ccc(NC(=O)Nc3ccc(OC(C)(C)C#N)c(C(F)(F)F)c3)c(F)c2)c[nH]c1=O [Example 83] | < 100
CCOc1cc(-c2ccc(NC(=O)Nc3ccc(OC4(C)CC(O)C4)c(C(F)(F)F)c3)c(F)c2)c[nH]c1=O (stereo not shown) [Example 84] | < 100
CCOc1cc(-c2ccc(NC(=O)Nc3ccc(OC4(C)CCN(C(C)C)C4)c(C(F)(F)F)c3)c(F)c2)c[nH]c1=O (stereo not shown) [Example 85] | < 100
CCOc1cc(Oc2ccc(NC(=O)Nc3cc(C(F)(F)F)ccc3F)cc2)c[nH]c1=O [Example 86] | < 100
CCOc1cc(-c2ccc(NC(=O)Nc3ccc(OC4(C)COC4)c(C(F)(F)F)c3)c(Cl)n2)c[nH]c1=O [Example 87] | < 100
CCOc1cc(=O)[nH]cc1-c1ncc(NC(=O)Nc2ccc(C3(CO)CC3)c(C(F)(F)F)c2)c(C)n1 [Example 88] | < 100
CCOc1cc(-c2ccc(NC(=O)Nc3cnc(C(C)(C)O)c(C(F)(F)F)c3)c(F)c2)c[nH]c1=O [Example 89] | < 100
CCOc1cc(-c2cc(F)c(NC(=O)Nc3ccc(OC4(C)COC4)c(C(F)(F)F)c3)c(F)c2)c[nH]c1=O [Example 90] | < 100
CCOc1cc(-c2ncc(NC(=O)Nc3cc(C(=O)NCCN(C)C)cc(C(F)(F)F)c3)c(C)n2)c[nH]c1=O [Example 91] | < 100
CCOc1cc(-c2ccc(NC(=O)Nc3cnc(OC(C)C)c(C(F)(F)F)c3)c(F)c2)c[nH]c1=O [Example 92] | < 100
CCOc1cc(-c2ccc(NC(=O)Nc3ccc(OC4(C)COC4)c(C(F)F)c3)c(F)c2)c[nH]c1=O [Example 93] | < 100
CC1(Oc2ccc(NC(=O)Nc3ccc(-c4c[nH]c(=O)c(O)c4)cc3F)cc2C(F)(F)F)COC1 [Example 94] | < 100
CNc1cc(-c2ccc(NC(=O)Nc3ccc(OC4(C)COC4)c(C(F)(F)F)c3)c(F)c2)c[nH]c1=O [Example 95] | < 100
CCOc1cc(-c2ncc(NC(=O)Nc3ccc(OC4(C)COC4)c(C(F)(F)F)c3)c(C)n2)c[nH]c1=O [Example 96] | < 100
CCOc1cc(-c2cc(C)c(NC(=O)Nc3ccc(OC4(C)COC4)c(C(F)(F)F)c3)cn2)c[nH]c1=O [Example 97] | < 100
CCOc1ccc(NC(=O)Nc2ccc(-c3c[nH]c(=O)c4ccoc34)cc2F)cc1C(F)(F)F [Example 98] | < 100
CCOc1cc(-c2ncc(NC(=O)Nc3cc(OCCN4CCOCC4)cc(C(F)(F)F)c3)c(C)n2)c[nH]c1=O [Example 99] | < 100
COc1cc(-c2ccc(NC(=O)Nc3ccc(OC4(C)COC4)c(C(F)(F)F)c3)c(C)n2)c[nH]c1=O [Example 100] | < 100

Compound | IC50 [nM]
CCOc1cc(Oc2ccc(NC(=O)Nc3ccc(OC4(C)COC4)c(C(F)(F)F)c3)cn2)c[nH]c1=O [Example 101] | < 100
CCOc1cc(-c2ccc(NC(=O)Nc3ccc(OC4(C)COC4)c(C(F)(F)F)c3)c(CC)n2)c[nH]c1=O [Example 102] | < 100
CCOc1cc(-c2cnc(NC(=O)Nc3ccc(OC4(C)COC4)c(C(F)(F)F)c3)c(F)c2)c[nH]c1=O [Example 103] | < 100
CCOc1cc(-c2ccc(NC(=O)Nc3ccc(OC4(C)COC4)c(C(F)(F)F)c3)c(C3CC3)n2)c[nH]c1=O [Example 104] | < 100
CCOc1cc(-c2cnc(NC(=O)Nc3ccc(OC4(C)COC4)c(C(F)(F)F)c3)c(C)c2)c[nH]c1=O [Example 105] | < 100
CCOc1cc(-c2ccc(NC(=O)Nc3ccc(OC4(C)COC4)c(C(F)(F)F)c3)cn2)c[nH]c1=O [Example 106] | < 100
O=C(Nc1ccc(F)c(C(F)(F)F)c1)Nc1ccc(-c2c[nH]c(=O)c(OCCCF)c2)cc1F [Example 107] | < 100
CCOc1cc(-c2cnc(NC(=O)Nc3ccc(OC4(C)COC4)c(C(F)(F)F)c3)c(C)n2)c[nH]c1=O [Example 108] | < 100
CCOc1cc(-c2ncc(NC(=O)Nc3ccc(CN4CCC4)c(C(F)(F)F)c3)c(C)n2)c[nH]c1=O [Example 109] | < 100
CCOc1cc(-c2ccc(NC(=O)Nc3ccc(OC4(C)COC4)c(C(F)(F)F)c3)c(OC)n2)c[nH]c1=O [Example 110] | < 100
CCOc1cc(-c2ncc(NC(=O)Nc3ccc(CN4CCCC4)c(C(F)(F)F)c3)c(C)n2)c[nH]c1=O [Example 111] | 100 to 500
CCOc1cc(-c2ccc(NC(=O)Nc3ccc(OC4(C)COC4)c(C(F)(F)F)c3)c(N(C)C)n2)c[nH]c1=O [Example 112] | 100 to 500
CCOc1ccc(NC(=O)Nc2ccc(-c3ccc(=O)n(CC)c3)cc2F)cc1C(F)(F)F [Example 113] | 100 to 500
CCOc1cc(-c2cnc(NC(=O)Nc3ccc(CN(C)C)c(C(F)(F)F)c3)c(C)n2)c[nH]c1=O [Example 114] | 100 to 500
CCOc1cc(-c2ccc(NC(=O)Nc3ccc(OC4(C)COC4)c(C(F)(F)F)c3)c(OC(C)C)n2)c[nH]c1=O [Example 115] | 500 to 10000
CCOc1cc(-c2ccc(NC(=O)Nc3ccc(C(C)O)c(C(F)(F)F)c3)c(F)c2)c[nH]c1=O (stereo not shown) [Example 116] | < 100
CCOc1cc(-c2ccc(NC(=O)Nc3ccc(OC4(C)CN(C)C4)c(C(F)(F)F)c3)c(F)c2)c[nH]c1=O [Example 117] | < 100
CCOc1cc(-c2ccc(NC(=O)Nc3ccc(OC(C)(C)CO)c(C(F)(F)F)c3)c(F)c2)c[nH]c1=O [Example 118] | < 100
CCOc1cc(-c2ccc(NC(=O)Nc3ccc(OC4(C)COC4)c(C(F)(F)F)c3)c(F)c2F)c[nH]c1=O [Example 119] | < 100
CCOc1cc(-c2ccc(NC(=O)Nc3ccc(C(C)(C)CO)c(C(F)(F)F)c3)c(F)c2)c[nH]c1=O [Example 120] | < 100
CC(C)Oc1ccc(NC(=O)Nc2ccc(-c3c[nH]c(=O)c(OCCCF)c3)cc2F)cc1C(F)(F)F [Example 121] | < 100
CCOc1cc(-c2ccc(NC(=O)Nc3ccc(OC(C)CO)c(C(F)(F)F)c3)c(F)c2)c[nH]c1=O (stereo not shown) [Example 122] | < 100

Compound | IC50 [nM]
CCOc1cc(-c2ccc(NC(=O)Nc3ccc(OC4(CO)CC4)c(C(F)(F)F)c3)c(F)c2)c[nH]c1=O [Example 123] | < 100
CCOc1cc(=O)[nH]cc1-c1ccc(NC(=O)Nc2ccc(OC3(C)COC3)c(C(F)F)c2)c(F)c1 [Example 124] | < 100
CCOc1cc(-c2ccc(NC(=O)Nc3ccc(CC(F)(F)CO)c(C(F)(F)F)c3)c(F)c2)c[nH]c1=O [Example 125] | < 100
CC1(Oc2ccc(NC(=O)Nc3ccc(-c4c[nH]c(=O)cc4OC(F)F)cc3F)cc2C(F)(F)F)COC1 [Example 126] | < 100
CCOc1cc(-c2ccc(NC(=O)Nc3ccc(C(C)C#N)c(C(F)(F)F)c3)c(F)c2)c[nH]c1=O (stereo not shown) [Example 127] | < 100
CCOc1cc(=O)[nH]cc1-c1ccc(NC(=O)Nc2cc(C(F)(F)F)ccc2F)c(F)c1 [Example 128] | < 100
CCOc1cc(-c2ccc(NC(=O)Nc3ccc(C(C)(C)O)c(C(F)(F)F)c3)c(F)c2)c[nH]c1=O [Example 129] | < 100
CCOc1cc(-c2ccc(NC(=O)Nc3ccc(OC4(C)COC4)c(C(F)(F)F)c3)c(F)c2)c[nH]c1=O [Example 130] | < 100
CCCOc1cc(-c2ccc(NC(=O)Nc3ccc(OC4(C)COC4)c(C(F)(F)F)c3)cc2)c[nH]c1=O [Example 131] | < 100
CCOc1cc(-c2ccc(NC(=O)Nc3ccc(CO)c(C(F)(F)F)c3)c(F)c2)c[nH]c1=O [Example 132] | < 100
CCOc1cc(-c2ccc(NC(=O)Nc3ccc(OC4(C)COC4)c(C(F)(F)F)c3)cc2F)c[nH]c1=O [Example 133] | < 100
CCOc1cc(-c2ccc(NC(=O)Nc3ccc(OC4(CO)CCC4)c(C(F)(F)F)c3)c(F)c2)c[nH]c1=O [Example 134] | < 100
CCOc1cc(-c2ccc(NC(=O)Nc3ccc(C(C)(C)C#N)c(C(F)(F)F)c3)c(F)c2)c[nH]c1=O [Example 135] | < 100
CC(C)Oc1cc(-c2ccc(NC(=O)Nc3ccc(OC4(C)COC4)c(C(F)(F)F)c3)c(F)c2)c[nH]c1=O [Example 136] | < 100
Cc1cc(-c2ccc(=O)[nH]c2)ccc1NC(=O)Nc1ccc(OC2(C)COC2)c(C(F)(F)F)c1 [Example 137] | < 100
CCCOc1cc(-c2ccc(NC(=O)Nc3ccc(OC4(C)COC4)c(C(F)(F)F)c3)c(F)c2)c[nH]c1=O [Example 138] | < 100
CCOc1cc(-c2ccc(NC(=O)Nc3ccc(OC(C)(C)CF)c(C(F)(F)F)c3)c(F)c2)c[nH]c1=O [Example 139] | < 100
CCOc1cc(-c2ccc(NC(=O)Nc3ccc(OC4(C)COC4)c(C(F)(F)F)c3)cc2)c[nH]c1=O [Example 140] | < 100
CCOc1cc(-c2ccc(NC(=O)Nc3cc(C(F)(F)F)ccc3O)c(F)c2)c[nH]c1=O [Example 141] | < 100
CCOc1cc(-c2ccc(NC(=O)Nc3ccc(OCCO)c(C(F)(F)F)c3)c(F)c2)c[nH]c1=O [Example 143] | < 100
